The values that follow come from patent US6613942B1 (Novo Nordisk A/S, priority 1997, dated 2003).

System in one series: not given
Settings: not given
A word on the melting point: it is the temperature, or range, at which the solid turns liquid. `Nc1cc(C(=O)N/N=C/c2ccc(OCC(=O)N[C@@H]3CCN(Cc4ccccc4)C3)c3ccccc23)ccc1O` [Example 795, (R)-2-{4-[(3-Amino-4-hydroxybenzoyl)hydrazonomethyl]naphthyl-1-yloxy}-N-(1-benzylpyrrolidin-3-yl)acetamide] yielded a melting point of 187 to 192 °C.

The molecule `CCN(CC)CCN(CCOc1ccc(/C=N/NC(=O)c2ccc(O)c(Cl)c2)c2ccccc12)Cc1ccc(OC(F)(F)F)cc1` [Example 143, 3-Chloro-4-hydroxybenzoic Acid {4-[2-[N′-(2-N,N-Diethylaminoethyl)-N′-(4-trifluoromethoxy-benzylamino)]]ethoxy-1-naphthylmethylene}hydrazide] displayed a melting point of 134 to 136 °C.

`COc1cc(/C=N/NC(=O)c2ccc(O)c(Cl)c2)ccc1NC(=O)COc1ccc(OC(F)(F)F)cc1` [Example 806, N-{4-[(3-Chloro-4-hydroxybenzoyl)hydrazonomethyl]-2-methoxyphenyl}-2-(4-trifluoromethoxyphenoy)acetamide] gave a melting point of 216 to 218 °C.

In turn, `COc1cc(OCCN2CCc3ccccc3C2)ccc1/C=N/NC(=O)c1ccc(O)c(N)c1` [Example 792, 3-Amino-4-hydroxybenzoic Acid {4-[2-(1,2,3,4-Tetrahydro-isoquinolin-2-yl)ethoxy]-2-methoxybenzylidene}hydrazide] had a melting point of 162 to 164 °C.

With `COc1cc(OCC(=O)NC2CCN(Cc3ccccc3)C2)ccc1/C=N/NC(=O)c1ccc(O)c(N)c1` [Example 794, (R)-2-{4-[(3-Amino-4-hydroxybenzoyl)hydrazonomethyl]-3-methoxyphenoxy}-N-(1-benzylpyrrolidin-3-yl)acetamide], the melting point was in the range of 157 to 160 °C.

The molecule `COc1cc(/C=N/NC(=O)c2ccc(O)c(N)c2)cc(OC)c1OCc1ccc(C(C)C)cc1` [Example 793, 3-Amino-4-hydroxybenzoic Acid [4-(4-Isopropylbenzyloxy)-3,5-dimethoxybenzylidene]-hydrazide] had a melting point of 174 to 175 °C.

Molecule `Nc1cc(C(=O)N/N=C/c2ccc(OCC(=O)N[C@H]3CCN(Cc4ccccc4)C3)c3ccccc23)ccc1O` [Example 797, (S)-2-{4-[(3-Amino-4-hydroxybenzoyl)hydrazonomethyl]naphthyl-1-yloxy}-N-(1-benzylpyrrolidin-3-yl)acetamide] yielded a melting point of 192 to 193 °C.

In turn, `COc1cc(/C=N/NC(=O)c2ccc(O)c(Cl)c2)ccc1NC(=O)c1ccc2ccccc2n1` [Example 807, Quinoline-2-carboxylic Acid {4-[(3-Chloro-4-hydroxybenzoyl)hydrazonomethyl]-2-methoxyphenyl}amide] registered a melting point of 159 to 162 °C.

`COc1cc(NC(=O)COc2ccc(Cl)cc2)ccc1/C=N/NC(=O)c1ccc(O)c(Cl)c1` [Example 808, N-(4-[(3-Chloro-4-hydroxybenzoyl)hydrazonomethyl]-3-methoxyphenyl}-2-(4-chlorophenoxy)acetamide] returned a melting point of 216 to 218 °C.

The molecule `COc1cc(NC(=O)c2ccc3ccccc3n2)ccc1/C=N/NC(=O)c1ccc(O)c(Cl)c1` [Example 805, Quinoline-2-carboxylic Acid (4-[(3-Chloro-4-hydroxybenzoyl)hydrazonomethyl]-3-methoxyphenyl}amide] yielded a melting point of 236 to 238 °C.

`COc1cc(NC(=O)COc2ccc(OC(F)(F)F)cc2)ccc1/C=N/NC(=O)c1ccc(O)c(Cl)c1` [Example 804]: the melting point was 235 to 236.5 °C.

The target of a further series is rat liver receptor (Rattus norvegicus, UniProt P30082). The following applies: literature, Bioorganic and Medicinal Chemistry Letters 2(9):915-918; cited from earlier work.
Sequence of rat liver receptor (P30082 27-485): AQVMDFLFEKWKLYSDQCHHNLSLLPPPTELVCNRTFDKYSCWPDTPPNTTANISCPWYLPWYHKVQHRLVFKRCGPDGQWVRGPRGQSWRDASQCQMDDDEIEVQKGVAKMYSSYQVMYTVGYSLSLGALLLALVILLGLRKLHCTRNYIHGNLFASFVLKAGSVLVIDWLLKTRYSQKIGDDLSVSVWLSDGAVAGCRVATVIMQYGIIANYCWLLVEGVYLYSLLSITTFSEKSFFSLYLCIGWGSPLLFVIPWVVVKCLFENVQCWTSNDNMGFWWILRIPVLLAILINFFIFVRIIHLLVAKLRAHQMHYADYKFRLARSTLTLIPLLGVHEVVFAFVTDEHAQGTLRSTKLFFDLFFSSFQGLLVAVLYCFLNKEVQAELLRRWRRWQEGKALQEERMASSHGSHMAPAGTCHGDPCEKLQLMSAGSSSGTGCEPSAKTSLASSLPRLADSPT
For the molecule `CN(C)CCCN(C)c1nc2cc(Cl)c(Cl)cc2nc1C=Cc1ccccc1` [(2-styryl-3-[3-(dimethylamino)propylmethyl-amino]-6,7-dichloroquinoxaline], the “displacement of glucagon from the rat liver receptor” value is “displace glucagon from the rat liver receptor”.
